In article PMC10458858, “Phytochemical Investigation of Lepionurus sylvestris Blume and Their Anti-Diabetes Effects via Anti-Alpha Glucosidase and Insulin Secretagogue Activities Plus Molecular Docking” (Pharmaceuticals, 2023):
Values joined by “and” are separate entries in the source; they are usually repeats but may differ in a detail not shown here. Equal values may be shown once. Read-outs that look alike come from different tables or passages of the source.

Columns and labels:
alpha glucosidase enzyme = alpha glucosidase enzyme (Saccharomyces cerevisiae, UniProt P53341); assay: Anti-alpha glucosidase activity and mechanism of action (Michaelis–Menten, Lineweaver–Burk plots); format: biochemical; conditions: for inhibition at 400 µg/mL: read-out: Alpha Glucosidase Inhibition at 400 μg/mL
Sequence of alpha glucosidase enzyme (P53341 whole entry): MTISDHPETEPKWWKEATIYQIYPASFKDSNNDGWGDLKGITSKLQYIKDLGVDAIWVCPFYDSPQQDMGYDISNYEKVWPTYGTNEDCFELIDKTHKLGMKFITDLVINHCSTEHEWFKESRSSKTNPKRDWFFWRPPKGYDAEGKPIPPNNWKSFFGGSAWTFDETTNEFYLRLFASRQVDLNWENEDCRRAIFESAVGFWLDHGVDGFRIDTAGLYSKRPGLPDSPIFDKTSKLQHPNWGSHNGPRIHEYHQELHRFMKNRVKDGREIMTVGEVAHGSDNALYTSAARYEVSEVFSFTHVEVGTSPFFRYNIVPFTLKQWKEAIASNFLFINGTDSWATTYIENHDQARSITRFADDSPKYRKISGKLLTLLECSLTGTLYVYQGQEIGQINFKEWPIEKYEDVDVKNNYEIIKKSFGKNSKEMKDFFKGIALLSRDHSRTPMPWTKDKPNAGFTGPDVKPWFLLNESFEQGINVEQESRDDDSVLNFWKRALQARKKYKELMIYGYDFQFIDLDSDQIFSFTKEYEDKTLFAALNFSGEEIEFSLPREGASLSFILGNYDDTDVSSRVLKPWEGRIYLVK
Description: The anti-alpha glucosidase activity was determined by following Phoopha et al.’s method. […] The reaction was prepared using a phosphate buffer (pH 7.0), sample (was dissolved in DMSO), […] as substrate, and alpha glucosidase enzyme solution. The test was evaluated by measuring the velocity of the reaction per minute.

in vitro [1] = conditions: human
Description: (§1) The toxicity in human cancer cells was tested on a human breast carcinoma cell line (MCF-7), human cervix adenocarcinoma cell line (HeLa), and human lung carcinoma cell line (A549), which were compared to a human gingival fibroblast cell line (HGF) as the normal cells. These cells were cultured in DMEM liquid medium, supporting supplementary nutrients for cell culture. […] A sulforhodamine B assay was used to evaluate the cytotoxic effects of the samples, following a previous report [19]. In brief, the cancer cells were seeded into 96-well plates at 5 × 10^3 cells and incubated for 24 h. Later, we added the test samples at the final concentration of 25 μg/mL and left the experiment in the incubator for 72 h. After that, the cancer cells were fixed with cold 10% trichloro acetic acid for an hour and then we washed the acid with water. The dried plate was dyed with 0.4% SRB in 1% acetic acid for 30 min, and we washed the color with 1% acetic acid 4 times. The SRB color was dissolved in the cancer cells by adding 10 mM tris-base and measuring with a microplate reader at 492 nm.

in vitro [2] = format: cell-based, human; conditions: human; 25 µg/mL, 72 h, SRB; read-out: Cytotoxic Effect at 25 µg/mL (% Inhibition) ± SD, MCF-7
Description: as §1

in vitro [3] = format: cell-based, human; conditions: human; 25 µg/mL, 72 h, SRB; read-out: Cytotoxic Effect at 25 µg/mL (% Inhibition) ± SD, HeLa
Description: as §1

in vitro [4] = format: cell-based, human; conditions: human; 25 µg/mL, 72 h, SRB; read-out: Cytotoxic Effect at 25 µg/mL (% Inhibition) ± SD, A549
Description: as §1

[5] = system: insulin-secreting rat insulinoma (INS-1E) cells; assay: Insulin secretagogue activity (ELISA); format: cell-based; conditions: 100 μg/mL, 24 h
Description: The experiment was slightly modified from previous reports. In brief, the insulin secretion was determined by testing insulin-secreting rat insulinoma (INS-1E) cells, supported by Prof. Dr. Michael Wink, Institute of Pharmacy and Molecular Biotechnology (IPMB), University of Heidelberg, Germany. The cells were cultured in RPMI-1640 liquid medium and supplementary nutrients for cell culture under the condition of a 37 °C humidified incubator containing 5% CO2. The cells were seeded into 24-well plates at 2 × 10^5 cells. Later, the cells were treated with glucose-free culture media to stop energy consumption in the cell metabolism. Afterward, the minimum concentration of glucose in RPMI-1640 was added to the samples for 24 h. Finally, the insulin secretion was measured for insulin releasing by ELISA technique.

[6] = system: HGF (human gingival fibroblast)
Description: as §1

[7] = system: MCF-7 (human breast adenocarcinoma); assay: in vitro; format: cell-based
Description: as §1

[8] = system: Hela (human cervix adenocarcinoma); assay: in vitro; format: cell-based
Description: as §1

[9] = system: A549 (human lung adenocarcinoma); assay: in vitro; format: cell-based
Description: as §1

[10] = 400 μg/mL, isolated compounds panel
[11] = control 2.5 mM glucose in RPMI-1640

## C[C@H]1O[C@H](O[C@H]2[C@H](O)[C@@H](O)[C@@H](O[C@H]3[C@H](O)[C@@H](O)C(O)O[C@@H]3CO)O[C@@H]2CO)[C@H](O)[C@@H](O)[C@@H]1N[C@H]1C=C(CO)[C@@H](O)[C@H](O)[C@H]1O (stereo partly drawn) [Acarbose, reference compound]
Alpha glucosidase enzyme; [10]
  Alpha Glucosidase Inhibition at 400 μg/mL: 62.14 ± 0.37
Alpha glucosidase enzyme; 2 mg/mL, extracts panel
  Alpha Glucosidase Inhibition at 2 mg/mL: 88.18 ± 0.53%
Alpha glucosidase enzyme; Michaelis–Menten and Lineweaver–Burk kinetic plots
  mechanism of enzyme inhibition: competitive

## CC[C@@]1(O)C(=O)OCc2c1cc1n(c2=O)Cc2cc3ccccc3nc2-1 [Camptothecin, reference compound]
In vitro [1]
  inhibition at 72 h, 25 µg/mL: 7.35 ± 1.34%
In vitro [2]
  inhibition at 72 h, 25 µg/mL: 92.95 ± 0.33%
In vitro [3]
  inhibition at 72 h, 25 µg/mL: 85.2 ± 1.23%
In vitro [4]
  inhibition at 72 h, 25 µg/mL: 87.7 ± 1.78%

## OCC(O)COCC(O)CO (stereo not drawn) [Diglycerol]
Alpha glucosidase enzyme; [10]
  inhibition at 400 µg/mL: 6.23 ± 1.84%
[5]; [11]
  total insulin secretion (insulin concentration): 102.2139 µg/L
[5]; control 2.5 mM glucose in RPMI-1640, listed as diglycerol
  total insulin secretion (insulin concentration): 102.21 µg/L

## CC(C)[C@@H](C)/C=C/[C@@H](C)[C@H]1CC[C@H]2C3=CC=C4C[C@@H](O)CC[C@]4(C)[C@H]3CC[C@]12C [Ergosterol]
Alpha glucosidase enzyme
  inhibition at 400 µg/mL: 18.6 ± 1.42%
[5]; [11]
  total insulin secretion (insulin concentration): 102.4525 µg/L
[5]; control 2.5 mM glucose in RPMI-1640, listed as ergosterol
  total insulin secretion (insulin concentration): 102.45 µg/L

## COc1ccc(Cl)cc1C(=O)NCCc1ccc(S(=O)(=O)NC(=O)NC2CCCCC2)cc1 [Glibenclamide, reference compound]
[5]; [11]
  total insulin secretion (insulin concentration): 104.57 µg/L and 104.5722 µg/L

## Cc1c(O)c(C(=O)CCc2ccccc2)c2oc(=O)cc(-c3ccccc3)c2c1O [Interruptin A]
Alpha glucosidase enzyme; [10]
  inhibition at 400 µg/mL: 30.3 ± 1.17%
[5]; [11]
  total insulin secretion (insulin concentration): 102.52 µg/L and 102.5228 µg/L

## Cc1c(O)c(C(=O)C(O)Cc2ccccc2)c2oc(=O)cc(-c3ccccc3)c2c1O (stereo not drawn) [Interruptin C]
Alpha glucosidase enzyme; [10]
  inhibition at 400 µg/mL: 58.2 ± 0.83%
[5]; [11]
  total insulin secretion (insulin concentration): 102.0534 µg/L
[5]; control 2.5 mM glucose in RPMI-1640, listed as interruptin C
  total insulin secretion (insulin concentration): 102.05 µg/L

## C=C1CC23COC(=O)C2=CCC[C@@H]3[C@@H]2C[C@H](c3ccoc3)OC(=O)[C@H]12 (stereo partly drawn) [The new diterpene (Lepionurodiolide), 15-16-epoxy-neo-cleoda-3,7(20),13(16),14-tetraene-12,17:18,19-diolide]
Alpha glucosidase enzyme; [10]
  inhibition at 400 µg/mL: 58.48 ± 0.48%
[5]; control 2.5 mM glucose in RPMI-1640, listed as The new diterpene
  total insulin secretion (insulin concentration): 52.0566 µg/L
[5]; control 2.5 mM glucose in RPMI-1640, listed as the new diterpene compound
  total insulin secretion (insulin concentration): 52.06 µg/L

## Hexane
[6]
  Cytotoxic Effect at 25 µg/mL (% Inhibition) ± SD, HGF: 48.23 ± 2.96%
  cytotoxicity category on HGF cells: moderate (key: non-cytotoxic: cell viability above 80%; weak: 80–60%; moderate: 60–40%; strong: below 40%)
[7]
  Cytotoxic Effect at 25 µg/mL (% Inhibition) ± SD, MCF-7: 53.54 ± 1.81%
[8]
  Cytotoxic Effect at 25 µg/mL (% Inhibition) ± SD, HeLa: 83.89 ± 4.31%
[9]
  Cytotoxic Effect at 25 µg/mL (% Inhibition) ± SD, A549: 15.40 ± 2.75%
